Data on 10 compounds can be found in PubChem BioAssay (NCI).

SMILES strings stand for the structures.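 Following 48 hours of exposure in 96-well plates, responses at five concentrations were used to interpolate endpoints linearly. GI50 marks 50% less growth. The concentration for full growth arrest is given as TGI.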

Test systems include M14 melanoma; SNB-19 CNS; SK-MEL-5 melanoma; UACC-62 melanoma; OVCAR-8 ovarian; A549 NSCLC; OVCAR-4 ovarian; EKVX NSCLC; NCI-H23 lung; HOP-92 NSCLC.
Holding throughout (test): NCI anticancer screen, dose series, 48 h

Turning to `CN(C)CCC(/C=C/c1ccccc1)=N\Nc1ccc(Cl)cc1Cl`, the TGI in the assay with M14 melanoma is 26.6 µM; in the assay on SNB-19 CNS, 29.4 µM; with SK-MEL-5 melanoma, 26.2 µM; in the assay on UACC-62 melanoma, 21.4 µM; in the assay with OVCAR-8 ovarian, 30.3 µM; in the assay on A549 NSCLC, 30.5 µM. The TGI worked out at 29.7 µM in the assay on OVCAR-4 ovarian, 31.1 µM in the assay on EKVX NSCLC and 31.4 µM with NCI-H23 lung.
For the compound `CN1CCN(Cc2ccc(NC(=O)c3[nH]ncc3Nc3ncnc4sc5c(c34)CCCC5)cc2)CC1`, the GI50 is 0.324 µM with M14 melanoma; 0.282 µM in the assay on SNB-19 CNS; 0.543 µM with SK-MEL-5 melanoma; 0.55 µM in the assay on UACC-62 melanoma; 0.413 µM in the assay with OVCAR-8 ovarian; 0.327 µM in the assay on OVCAR-4 ovarian. The GI50 with HOP-92 NSCLC was 1.48 µM. Moreover, the TGI in the assay with M14 melanoma is 1.64 µM; in the assay with SNB-19 CNS it was 1.48 µM; with SK-MEL-5 melanoma, 1.87 µM; in the assay on UACC-62 melanoma, 1.93 µM; in the assay with OVCAR-8 ovarian, 2.52 µM; with OVCAR-4 ovarian, 1.84 µM. Moreover, the TGI in the assay on HOP-92 NSCLC came to 4.81 µM.
Turning to `C/C=C(\C)c1cc(O)c(C)c2c1Oc1cc(O)c(Cl)c(C)c1C(=O)O2`, the TGI with M14 melanoma amounted to 43.4 µM; with SNB-19 CNS, 31.6 µM; in the assay on SK-MEL-5 melanoma it was 26.9 µM; in the assay with OVCAR-8 ovarian, 45.9 µM; in the assay on A549 NSCLC it was 74 µM; in the assay on OVCAR-4 ovarian, 34.5 µM. Also, the TGI came to 61.2 µM with EKVX NSCLC and 38.6 µM in the assay with NCI-H23 lung.
On to `C[C@@H]1O[C@@H](OC[C@H]2O[C@@H](OCCc3ccc(O)c(O)c3)[C@H](O)[C@@H](O)[C@@H]2OC(=O)/C=C/c2ccc(O)c(O)c2)[C@H](O)[C@H](O)[C@H]1O`, for which the GI50 in the assay with M14 melanoma, in the assay on SNB-19 CNS, with SK-MEL-5 melanoma, with UACC-62 melanoma, in the assay on OVCAR-8 ovarian and in the assay on A549 NSCLC was over 100 µM each time. The GI50 in the assay with OVCAR-4 ovarian and in the assay on EKVX NSCLC was over 100 µM each time. In addition, the TGI in the assay with M14 melanoma, in the assay on SNB-19 CNS, in the assay with SK-MEL-5 melanoma, with UACC-62 melanoma, in the assay on OVCAR-8 ovarian and in the assay on A549 NSCLC was over 100 µM throughout. Besides, the TGI with OVCAR-4 ovarian and with EKVX NSCLC was over 100 µM in each case.
On to `Cc1nc2ccccc2c(/C=C/c2ccc(Br)cc2)c1C(=O)/C=C/c1ccccc1`, for which the GI50 with M14 melanoma was 1.85 µM; in the assay on SNB-19 CNS, 1.62 µM; with SK-MEL-5 melanoma, 1.72 µM; with UACC-62 melanoma, 1.54 µM; in the assay with OVCAR-8 ovarian, 1.57 µM; in the assay with A549 NSCLC, 1.91 µM. For the same compound, the GI50 was 1.69 µM in the assay on OVCAR-4 ovarian, 1.75 µM in the assay on EKVX NSCLC and 1.66 µM in the assay with NCI-H23 lung. Moreover, the TGI is 4.48 µM with M14 melanoma; 3.05 µM in the assay on SNB-19 CNS; 3.11 µM with SK-MEL-5 melanoma; 3.01 µM in the assay on UACC-62 melanoma; 3.48 µM in the assay on OVCAR-8 ovarian; 4.57 µM in the assay with A549 NSCLC. Also, the TGI with OVCAR-4 ovarian was 4.49 µM; in the assay with EKVX NSCLC, 3.32 µM; in the assay with NCI-H23 lung, 3.81 µM.
Regarding `CN(CCCCCl)P(=O)(OCCS(=O)(=O)CC(NC(=O)CCC(N)C(=O)O)C(=O)NC(C(=O)O)c1ccccc1)OCC1OC(n2cc(F)c(=O)[nH]c2=O)CC1O` (stereo unspecified), the GI50 with M14 melanoma was 0.0647 µM; with SNB-19 CNS it was 1.3 µM; in the assay on SK-MEL-5 melanoma, 0.989 µM; with UACC-62 melanoma, over 100 µM; with OVCAR-8 ovarian, 0.274 µM; in the assay with A549 NSCLC, under 0.0506 µM. The GI50 in the assay on OVCAR-4 ovarian was 8.27 µM; in the assay with EKVX NSCLC it was 39.2 µM; in the assay on NCI-H23 lung, 0.27 µM. In addition, the TGI with M14 melanoma is 2.85 µM; in the assay with SNB-19 CNS it was over 100 µM; in the assay on SK-MEL-5 melanoma, 15.9 µM; in the assay with UACC-62 melanoma, over 100 µM; with OVCAR-8 ovarian, over 100 µM; in the assay on A549 NSCLC it was over 100 µM. Besides, the TGI with OVCAR-4 ovarian is over 100 µM; in the assay on EKVX NSCLC, over 100 µM; with NCI-H23 lung, over 33.7 µM.
Take `Cn1c2ccccc2n2c(=O)c3c(c(C#N)c12)CCCC3`: the TGI in the assay on M14 melanoma, in the assay on SNB-19 CNS, in the assay with SK-MEL-5 melanoma, with OVCAR-8 ovarian, in the assay on A549 NSCLC and in the assay with OVCAR-4 ovarian was over 100 µM each time. Also, the TGI in the assay on EKVX NSCLC and in the assay with NCI-H23 lung was over 100 µM each time.
Regarding `COc1ccc2c(c1OC)C(=O)OC2C1c2c(c([N+](=O)[O-])c3c(c2OC)OCO3)CCN1C` (stereo unspecified), the GI50 in the assay on M14 melanoma, with SNB-19 CNS, with SK-MEL-5 melanoma, in the assay on UACC-62 melanoma, with OVCAR-8 ovarian and with A549 NSCLC was over 100 µM each time. In addition, the GI50 in the assay with OVCAR-4 ovarian, in the assay on EKVX NSCLC and in the assay on NCI-H23 lung was over 100 µM in each case. Also, the TGI in the assay on M14 melanoma, in the assay with SNB-19 CNS, in the assay on SK-MEL-5 melanoma, with UACC-62 melanoma, in the assay on OVCAR-8 ovarian and in the assay on A549 NSCLC was over 100 µM each time. In addition, the TGI in the assay on OVCAR-4 ovarian, with EKVX NSCLC and in the assay with NCI-H23 lung was over 100 µM throughout.
Regarding `CCC1(O)C(=O)OCc2c1cc1n(c2=O)Cc2cc3cc(N)ccc3nc2-1` (stereo unspecified), the TGI in the assay with M14 melanoma turned out to be 0.153 µM; in the assay with SNB-19 CNS, 3.36 µM; in the assay with SK-MEL-5 melanoma it was 0.0761 µM; in the assay on UACC-62 melanoma it was 0.251 µM; in the assay on OVCAR-8 ovarian, 4.45 µM; in the assay with A549 NSCLC, 2.41 µM. Further, the TGI with OVCAR-4 ovarian is over 22 µM; in the assay on EKVX NSCLC, over 28.9 µM; in the assay on NCI-H23 lung it was 0.0817 µM.
As for `COc1cc(/C=C/[N+](=O)[O-])cc(Br)c1OC`, the GI50 in the assay with M14 melanoma is 1.78 µM; with SNB-19 CNS, 6.93 µM; in the assay with SK-MEL-5 melanoma, 2.13 µM; in the assay on UACC-62 melanoma, 3.49 µM; in the assay on OVCAR-8 ovarian, 3.54 µM; in the assay on A549 NSCLC it was 7.84 µM. Moreover, the results for the GI50 in the assay with OVCAR-4 ovarian, in the assay with EKVX NSCLC and with NCI-H23 lung were 7.65 µM, 3.32 µM and 2.06 µM, respectively. The TGI amounted to 3.74 µM in the assay with M14 melanoma; 19.2 µM with SNB-19 CNS; 4.93 µM in the assay on SK-MEL-5 melanoma; 12.2 µM with UACC-62 melanoma; 13.1 µM with OVCAR-8 ovarian; 22 µM in the assay with A549 NSCLC. The TGI in the assay on OVCAR-4 ovarian amounted to 20.8 µM; in the assay with EKVX NSCLC it was 14.6 µM; in the assay with NCI-H23 lung it was 5.28 µM.
